Data on five molecules can be found in patent US20250213639A1 (U.S. NUTRACEUTICALS, INC., d/b/a Valensa International, priority 2021, published 2025).

Data set [1] has as its system DHT. The settings on record: cited from earlier work.
For data set [2] the following is noted: oral, guinea pigs, fur and skin; cited from earlier work.
Data set [3] has as its system men with mild to moderate androgenic alopecia. The note with it: 1 milligram per day, 24 months; cited from earlier work.
In data set [4] the target is T1, 5α-Reductase-1 (Homo sapiens, UniProt P18405).
T1 sequence (P18405 1-259): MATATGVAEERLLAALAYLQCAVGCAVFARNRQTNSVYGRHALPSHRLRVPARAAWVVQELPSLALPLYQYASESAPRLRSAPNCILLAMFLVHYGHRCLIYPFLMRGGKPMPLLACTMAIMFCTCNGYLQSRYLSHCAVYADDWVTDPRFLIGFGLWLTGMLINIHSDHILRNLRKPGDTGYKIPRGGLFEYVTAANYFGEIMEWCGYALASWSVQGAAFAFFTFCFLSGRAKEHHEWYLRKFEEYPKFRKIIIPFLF
The experiment in a line: 5α-reductase inhibition by constituents of saw palmetto extract (FIGS. 2, 3), Type 1. It is filed as biochemical.

The subject of data set [5] is normal mice. The note with it: after about 20 days, normal shaved mice; cited from earlier work.
Data set [6] addresses T2, 5α-Reductase-2 (Homo sapiens, UniProt P31213).
T2 sequence (P31213 1-254): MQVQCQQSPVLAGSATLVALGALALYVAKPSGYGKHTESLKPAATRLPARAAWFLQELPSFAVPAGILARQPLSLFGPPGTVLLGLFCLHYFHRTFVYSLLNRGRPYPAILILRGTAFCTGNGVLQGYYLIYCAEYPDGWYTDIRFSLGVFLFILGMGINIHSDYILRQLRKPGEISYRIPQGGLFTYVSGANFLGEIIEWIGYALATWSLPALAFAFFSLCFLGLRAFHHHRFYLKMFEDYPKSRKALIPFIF
In words: 5α-reductase inhibition by constituents of saw palmetto extract (FIGS. 2, 3), Type 2. In kind it is biochemical.

In the case of `C[C@]12C=CC(=O)N[C@@H]1CC[C@@H]1[C@@H]2CC[C@]2(C)[C@@H](C(=O)Nc3cc(C(F)(F)F)ccc3C(F)(F)F)CC[C@@H]12` [Dutasteride], the “reduction of DHT levels in the entire body” value in data set [1] (in vivo) was “more than 99%”.

In the case of `CC/C=C\C/C=C\C/C=C\CCCCCCCC(=O)O` [Linolenic acid], in data set [2], the “share of that lipid found in the free fatty acid form” value is “Over 70%”.

With `CC(C)(C)NC(=O)[C@H]1CC[C@H]2[C@@H]3CC[C@H]4NC(=O)C=C[C@]4(C)[C@H]3CC[C@]12C` [finasteride], the “men who noted an improvement” value in data set [3] is reported as 68%. In addition, the “decrease of the production of DHT” value in data set [1] (in some formulations) is “about 70%”.

On to `CCCCC/C=C\C/C=C\CCCCCCCC(=O)O` [linoleic acid], for which the “effectiveness for 5α-Reductase-1” value in data set [4] was “beneficial for both”. In addition, the hair growth entry in data set [5] was “about 100%”.

As for `CCCCCCCC/C=C\CCCCCCCC(=O)O` [oleic acid], in data set [4], the “effectiveness for 5α-Reductase-1” value was “especially effective”. Also, the “effectiveness for 5α-Reductase-2” value in data set [6] is “not as much”.
